{"source": "paper PMC7662393", "about": "“Comprehensive Characterization of Linalool-HP-β-Cyclodextrin Inclusion Complexes” (Molecules, 2020)", "key": {"[1]": {"design": "method as in PMID 25298799", "settings": "HP-β-CDs; cited from earlier work"}, "[2]": {"design": "method as in PMID 25298799", "settings": "RAMEB; cited from earlier work"}, "[3]": {"experiment": "Phase solubility of linalool with HP-β-CDs by microwave irradiation (MWI)", "format": "physicochemical", "settings": "pH 7.0", "experimental": "The encapsulation of linalool with HP-β-CDs by using MWI was carried out following the method described by Hernández-Sánchez et al. in 2017 [32]. Aqueous solutions of HP-β-CDs (100 mL, 0–100 mmol L^−1) were irradiated with microwave (LG Grill Wavedom, LG Electronics Las Rozas, Spain), at 700 W for 30 s, at 10 s intervals, until reaching a temperature of 70 °C in the solution. Later on, linalool was added to each aqueous solution, in a molar ratio of 1:1 and then, were irradiated again for 30 s at 10 s intervals, until reaching again 70 °C. Subsequently, the samples were shaken and kept for 12 h in dark sealed vials at 25 °C, before dividing them into two groups. After that, the first group, named 24 h MWI, was filtered using 0.45 µm nylon membrane filter (Chromafil, Macherey-Nagel). The second group, named 48 h MWI, were irradiated again, until reaching 70 °C, and maintain 12 h in the dark before they were filtered through a 0.45 µm nylon filter to remove linalool excess. Once filtered, both groups of samples were diluted with ethanol (20:80, v:v) until the GC-MS quantification of the linalool. All measurements were made in triplicate.\n(§1) The quantification of linalool was carried out by using a Shimadzu GC-QP 2010 (Kyoto, Japan) gas chromatographer combined with a mass spectrometer. Helium was used as carrier gas, at a flow rate of 0.5 mL min^−1. A ω-WAX 250 fused silica supelco column (30 m × 0.25 mm × 0.25 µm thickness), was used. The temperature conditions were as follows: initial temperature at 70 °C, raised to 160 °C at 4 °C min^−1, raised to 280 °C at 30 °C min^−1, and maintained finally at 280 °C for 6 min. Injector temperature was 250 °C and injector mode was Split 1:20.\n(§2) The peak area of each sample was used for linalool quantification (mmol L^−1), by interpolating in the calibration curve obtained using a standard of linalool, defined by equation: Area = […] [linalool (mmol L^−1)] and (R^2 = 0.9989) for linalool concentration from 0.0 to 0.5 mmol L^−1."}, "[4]": {"experiment": "Aqueous solubility of linalool (S0) from phase solubility study, ultrasound equilibrium", "format": "physicochemical", "settings": "for solubility at 60 min: read-out: Recovery aqueous solubility (S0)", "experimental": "(§3) The study of linalool solubility in the presence of CDs was carried out according to the method described by Higuchi and Connors in 1965 with slight modifications. CDs were dissolved in buffered solutions at different pHs: 3.5, 5.5 (100 mmol L^−1 sodium acetate buffer), 6.5, 7.0 (100 mmol L^−1 sodium phosphate buffer) and 8.5 (100 mmol L^−1 sodium borate buffer). The α- and HP-β-CDs were prepared up to 100 mmol L^−1. However, β-CDs were prepared up to 15 mmol L^−1, since this is their limit of aqueous solubility.\n(§4) A saturating concentration of linalool was added to each CDs solution and they were kept in an ultrasound bath for 60 min in the dark, at 25 °C, until equilibrium was reached. Subsequently, the solutions were filtered through a 0.45 µm nylon membrane filter (Chromafil, Macherey-Nagel, Düren, Germany) to remove excess linalool.\n(§5) Once filtered, the solutions were diluted with ethanol until reach ethanol 80% (solution:ethanol, 20:80, v:v) to quantify by gas chromatography-mass spectrometry (GC-MS) the linalool concentration in each solution. Phase solubility diagrams were made in triplicate.\nas §1, §2"}, "[5]": {"design": "method as in doi:10.1002/ffj.3197", "settings": "JECFA (FAO/WHO); cited from earlier work"}, "[6]": {"experiment": "Phase solubility study of linalool complexation with HP-β-CDs (ultrasound)", "format": "physicochemical", "experimental": "as §3, §4, §5, §1, §2\n(§6) Kc between linalool and CDs was calculated from the slope of the phase solubility profile and the solubility of linalool in aqueous solution (S0) by using Equation (1):(1) Kc (Lmol^−1)=slope/S0(1−slope)\n(§7) CE is the ratio between dissolved complex and free CDs concentration. […] was calculated by using Equation (2):(2) CE=[disolved−complex]/[CDs]=S0∗Kc\n(§8) The molar ratio (MR) linalool:CDs, was calculated using CE values with Equation (3). (3) linalool:CDs=1:(1+1/CE)"}, "[7]": {"experiment": "Phase solubility study of linalool complexation with β-CDs", "format": "physicochemical", "experimental": "as §3, §4, §5, §1, §2, §6, §7, §8"}, "[8]": {"experiment": "Phase solubility study of linalool complexation with α-CDs", "format": "physicochemical", "experimental": "as §3, §4, §5, §1, §2, §6, §7, §8"}, "[9]": {"settings": "hydroxyl group at C3; no reference or method printed; cited from earlier work"}, "[10]": {"design": "method as in PMID 25298799", "settings": "CRYSMEB; cited from earlier work"}}, "note": "Like-named read-outs stand apart in the source and are kept apart here.", "data": [{"smiles": "C=CCc1ccc(O)c(OC)c1", "note": "[eugenol]", "values": [{"measurement": "Complexation efficiency (CE)", "setting": "[1]", "result": 2.81}]}, {"smiles": "COc1cc(/C=C/C(=O)O)ccc1O", "note": "[ferulic acid]", "values": [{"measurement": "Complexation efficiency (CE)", "setting": "[2]", "result": 1.79}]}, {"smiles": "C=CC(C)(O)CCC=C(C)C", "note": "(stereo not drawn) [linalool, 3,7-dimethyl-1,6-octadien-3-ol]", "values": [{"measurement": "Linalool concentration solved", "setting": "[3]; 100 mM HP-β-CDs, MWI", "result": 13.61, "unit": "mM"}, {"measurement": "Increase in solubility of linalool", "setting": "[3]; HP-β-CDs, MWI as energy source, volume 100 mL", "result": 18.2, "unit": "fold"}, {"measurement": "solubility thermodynamic", "setting": "[3]; aqueous solution without HP-β-CDs (S0), 25 °C, water, thermodynamic from solid, MWI", "result": 0.75, "unit": "mM"}, {"measurement": "solubility at 60 min", "setting": "[4]; aqueous buffer, thermodynamic from solid, pH 6.5, 25 °C", "result": "8.16 ± 0.11", "unit": "mM"}, {"measurement": "solubility at 60 min", "setting": "[4]; aqueous buffer, thermodynamic from solid, pH 7.0, 25 °C", "result": 7.37, "unit": "mM"}, {"measurement": "Recovery aqueous solubility (S0)", "setting": "[4]; pH 3.5, 25 °C", "result": "9.34 ± 0.20", "unit": "mM"}, {"measurement": "solubility at 60 min", "setting": "[4]; pH 5.5, 25 °C", "result": "9.05 ± 0.16", "unit": "mM"}, {"measurement": "Recovery aqueous solubility (S0)", "setting": "[4]; pH 7.0, 25 °C", "result": "7.37 ± 0.03", "unit": "mM"}, {"measurement": "solubility at 60 min", "setting": "[4]; pH 8.5, 25 °C", "result": "9.33 ± 0.13", "unit": "mM"}, {"measurement": "solubility at 60 min", "setting": "[4]; sodium acetate buffer, pH 3.5, 25 °C", "result": 9.34, "unit": "mM"}, {"measurement": "Allowable daily intake (ADI)", "setting": "[5]", "result": "0–0.5 mg kg^−1 of body weight/day"}, {"measurement": "Linalool concentration solved", "setting": "[6]; 100 mM HP-β-CDs, US, pH 7.0", "result": 96.72, "unit": "mM"}, {"measurement": "Linalool concentration solved, US relative to MWI", "setting": "[6]; 100 mM HP-β-CDs, pH 7.0", "result": 7, "unit": "fold"}, {"measurement": "Increase in solubility of linalool", "setting": "[6]; HP-β-CDs, US as energy source, volume 100 mL, pH 7.0", "result": 13.1, "unit": "fold"}, {"measurement": "Complexation efficiency (CE)", "setting": "[6]; HP-β-CDs, pH 3.5", "result": 0.411}, {"measurement": "Complexation constant (KC)", "setting": "[6]; HP-β-CDs, pH 3.5, 25 °C", "result": "44 ± 6", "unit": "L/mol"}, {"measurement": "Complexation efficiency (CE)", "setting": "[6]; HP-β-CDs, pH 5.5", "result": 0.443}, {"measurement": "Complexation constant (KC)", "setting": "[6]; HP-β-CDs, pH 5.5, 25 °C", "result": "49 ± 7", "unit": "L/mol"}, {"measurement": "Complexation efficiency (CE)", "setting": "[6]; HP-β-CDs, pH 6.5", "result": 1.836}, {"measurement": "Complexation constant (KC)", "setting": "[6]; HP-β-CDs, pH 6.5, 25 °C", "result": "225 ± 14", "unit": "L/mol"}, {"measurement": "Complexation efficiency (CE)", "setting": "[6]; HP-β-CDs, pH 7.0", "result": 6.788}, {"measurement": "Complexation constant (KC)", "setting": "[6]; HP-β-CDs, pH 7.0, 25 °C", "result": "921 ± 21", "unit": "L/mol"}, {"measurement": "Complexation efficiency (CE)", "setting": "[6]; HP-β-CDs, pH 8.5", "result": 5.215}, {"measurement": "Complexation constant (KC)", "setting": "[6]; HP-β-CDs, pH 8.5, 25 °C", "result": "559 ± 17", "unit": "L/mol"}, {"measurement": "KC value for HP-β-CDs relative to that for β-CDs", "setting": "[6]; neutral pH", "result": 4, "unit": "fold"}, {"measurement": "Complexation efficiency (CE)", "setting": "[7]; pH 3.5", "result": 0.261}, {"measurement": "Complexation constant (KC)", "setting": "[7]; pH 3.5, 25 °C", "result": "28 ± 4", "unit": "L/mol"}, {"measurement": "Complexation efficiency (CE)", "setting": "[7]; pH 5.5", "result": 0.670}, {"measurement": "Complexation constant (KC)", "setting": "[7]; pH 5.5, 25 °C", "result": "74 ± 5", "unit": "L/mol"}, {"measurement": "Complexation efficiency (CE)", "setting": "[7]; pH 6.5", "result": 0.743}, {"measurement": "Complexation constant (KC)", "setting": "[7]; pH 6.5, 25 °C", "result": "91 ± 4", "unit": "L/mol"}, {"measurement": "Complexation efficiency (CE)", "setting": "[7]; pH 7.0", "result": 1.776}, {"measurement": "Complexation constant (KC)", "setting": "[7]; pH 7.0, 25 °C", "result": "241 ± 26", "unit": "L/mol"}, {"measurement": "Complexation efficiency (CE)", "setting": "[7]; pH 8.5", "result": 0.149}, {"measurement": "Complexation constant (KC)", "setting": "[7]; pH 8.5, 25 °C", "result": "16 ± 5", "unit": "L/mol"}, {"measurement": "Complexation efficiency (CE)", "setting": "[8]; pH 3.5", "result": 0.159}, {"measurement": "Complexation constant (KC)", "setting": "[8]; pH 3.5, 25 °C", "result": "17 ± 6", "unit": "L/mol"}, {"measurement": "Complexation efficiency (CE)", "setting": "[8]; pH 5.5", "result": 0.226}, {"measurement": "Complexation constant (KC)", "setting": "[8]; pH 5.5, 25 °C", "result": "25 ± 4", "unit": "L/mol"}, {"measurement": "Complexation efficiency (CE)", "setting": "[8]; pH 6.5", "result": 0.987}, {"measurement": "Complexation constant (KC)", "setting": "[8]; pH 6.5, 25 °C", "result": "121 ± 9", "unit": "L/mol"}, {"measurement": "Complexation efficiency (CE)", "setting": "[8]; pH 7.0", "result": 1.090}, {"measurement": "Complexation constant (KC)", "setting": "[8]; pH 7.0, 25 °C", "result": "148 ± 12", "unit": "L/mol"}, {"measurement": "Complexation efficiency (CE)", "setting": "[8]; pH 8.5", "result": 0.979}, {"measurement": "Complexation constant (KC)", "setting": "[8]; pH 8.5, 25 °C", "result": "105 ± 8", "unit": "L/mol"}, {"measurement": "pKa", "setting": "[9]", "result": 18.46}]}, {"smiles": "O=C(O)/C=C/c1ccc(O)cc1", "note": "[coumaric acid]", "values": [{"measurement": "Complexation efficiency (CE)", "setting": "[2]", "result": 2.57}, {"measurement": "Complexation efficiency (CE)", "setting": "[1]", "result": 2.30}, {"measurement": "Complexation efficiency (CE)", "setting": "[10]", "result": 1.89}]}]}
